Laboratory results published in ChEMBL document CHEMBL1681695, “Chroman and tetrahydroquinoline ureas as potent TRPV1 antagonists” (Bioorg Med Chem Lett, 2011).

What was measured:
[1] = target: Transient receptor potential cation channel subfamily V member 1 (Homo sapiens, UniProt Q8NER1); assay: Antagonist activity at human TRPV1 assessed as inhibition of calcium influx; type: functional
[2] = Ratio of drug uptake in brain to plasma in rat; type: ADME
Rattus norvegicus [3] = assay: Analgesic activity in rat assessed as inhibition of MIA-induced osteoarthritis pain at 30 umol/kg, po; type: functional
Rattus norvegicus [4] = assay: Antihyperalgesic activity in po dosed rat assessed as inhibition of carrageenan-induced hyperalgesia; type: functional
Rattus norvegicus [5] = assay: Antihyperalgesic activity in po dosed rat assessed as inhibition of CFA-induced hyperalgesia; type: functional
Rattus norvegicus [6] = assay: Analgesic activity in rat assessed as inhibition of capsaicin-induced acute pain at 30 umol/kg, po; type: functional
CYP3A4 = CYP3A4 (Homo sapiens, UniProt P08684); assay: Inhibition of CYP3A4 at 10 uM; type: ADME
Sequence of CYP3A4 (P08684 whole entry): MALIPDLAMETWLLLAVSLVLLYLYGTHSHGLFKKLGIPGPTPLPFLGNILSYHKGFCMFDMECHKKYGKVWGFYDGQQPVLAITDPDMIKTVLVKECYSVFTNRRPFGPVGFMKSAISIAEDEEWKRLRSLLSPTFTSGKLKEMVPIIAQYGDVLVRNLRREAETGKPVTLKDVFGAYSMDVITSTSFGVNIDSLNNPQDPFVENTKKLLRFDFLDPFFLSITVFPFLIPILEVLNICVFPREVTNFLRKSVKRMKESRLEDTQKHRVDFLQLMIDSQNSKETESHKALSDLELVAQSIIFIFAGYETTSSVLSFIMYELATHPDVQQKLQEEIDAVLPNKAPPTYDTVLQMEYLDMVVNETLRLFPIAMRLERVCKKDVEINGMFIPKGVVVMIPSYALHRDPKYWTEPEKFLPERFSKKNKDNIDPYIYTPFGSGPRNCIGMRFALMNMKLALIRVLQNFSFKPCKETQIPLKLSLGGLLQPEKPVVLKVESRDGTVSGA

Sequence of Transient receptor potential cation channel subfamily V member 1 (Q8NER1 whole entry): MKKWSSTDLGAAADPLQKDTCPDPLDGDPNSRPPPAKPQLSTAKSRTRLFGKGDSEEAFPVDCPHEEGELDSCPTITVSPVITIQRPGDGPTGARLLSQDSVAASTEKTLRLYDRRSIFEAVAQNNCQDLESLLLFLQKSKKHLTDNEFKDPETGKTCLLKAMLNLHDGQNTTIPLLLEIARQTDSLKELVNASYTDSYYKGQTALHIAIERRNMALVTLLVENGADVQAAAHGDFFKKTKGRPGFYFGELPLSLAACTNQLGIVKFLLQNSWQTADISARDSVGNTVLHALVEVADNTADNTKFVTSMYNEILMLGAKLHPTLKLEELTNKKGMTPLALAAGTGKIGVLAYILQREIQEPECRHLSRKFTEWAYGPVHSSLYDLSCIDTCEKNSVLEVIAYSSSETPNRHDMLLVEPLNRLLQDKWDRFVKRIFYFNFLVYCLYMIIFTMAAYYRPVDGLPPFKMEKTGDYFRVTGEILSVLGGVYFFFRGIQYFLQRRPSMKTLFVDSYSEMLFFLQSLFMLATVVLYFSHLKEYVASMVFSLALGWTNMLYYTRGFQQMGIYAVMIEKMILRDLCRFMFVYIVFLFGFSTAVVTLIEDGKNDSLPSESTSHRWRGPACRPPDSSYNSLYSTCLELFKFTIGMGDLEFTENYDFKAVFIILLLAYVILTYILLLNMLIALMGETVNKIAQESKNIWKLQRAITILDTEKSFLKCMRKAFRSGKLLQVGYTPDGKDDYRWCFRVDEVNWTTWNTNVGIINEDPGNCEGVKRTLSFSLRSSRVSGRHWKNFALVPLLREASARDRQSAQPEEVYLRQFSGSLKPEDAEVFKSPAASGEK

SMILES	IC50 [1] [nM]	further results
O=C(Nc1cccc2[nH]ncc12)NC1CCOc2c(C3CCCCC3)cccc21 (stereo unspecified)	15	–
O=C(Nc1cccc2[nH]ncc12)NC1CCOc2cc(OC(F)(F)F)ccc21 (stereo unspecified)	8	–
CC(C)(C)c1ccc2c(c1)OCCC2NC(=O)Nc1cccc2[nH]ncc12 (stereo unspecified)	43	–
O=C(Nc1cccc2[nH]ncc12)NC1CCOc2c1cccc2C(F)(F)F (stereo unspecified)	5	–
O=C(Nc1cccc2[nH]ncc12)NC1CCOc2c(OC(F)(F)F)cccc21 (stereo unspecified)	5	–
CC(C)(C)c1cccc2c1OCCC2NC(=O)Nc1cccc2[nH]ncc12 (stereo unspecified)	5	Kp [2]: 0.42; inhibition in vivo at 30 µmol/kg (Rattus norvegicus [3]): 56%; ED50 (Rattus norvegicus [4]): 10 µmol/kg; ED50 (Rattus norvegicus [5]): 15 µmol/kg; inhibition in vivo at 30 µmol/kg (Rattus norvegicus [6]): 89%
O=C(Nc1cccc2[nH]ncc12)NC1CCOc2c1cccc2N1CCCCC1 (stereo unspecified)	16	–
CN1CCC(NC(=O)Nc2cccc3[nH]ncc23)c2ccc(F)cc21 (stereo unspecified)	34	inhibition at 10 µM (CYP3A4): 66%
COc1ccc2c(c1)C(NC(=O)Nc1cccc3[nH]ncc13)CCN2C (stereo unspecified)	1380	inhibition at 10 µM (CYP3A4): 59%
CC(C)(C)c1ccc2c(c1)C(NC(=O)Nc1cccc3[nH]ncc13)CCN2Cc1ccccc1 (stereo unspecified)	121	–
CC(C)CCN1CCC(NC(=O)Nc2cccc3[nH]ncc23)c2cccc(Cl)c21 (stereo unspecified)	11	–
O=C(Nc1cccc2[nH]ncc12)N[C@@H]1CCOc2cc(C(F)(F)F)ccc21	4	–
O=C(Nc1cccc2[nH]ncc12)N[C@H]1CCOc2cc(C(F)(F)F)ccc21	43	–
CC(C)(C)c1ccc2c(c1)OCC[C@@H]2NC(=O)Nc1cccc2[nH]ncc12	1200	–
CC(C)(C)c1cccc2c1OCC[C@H]2NC(=O)Nc1cccc2[nH]ncc12	3	–
CN1CCC(NC(=O)Nc2cccc3[nH]ncc23)c2ccc(C(F)(F)F)cc21 (stereo unspecified)	–	inhibition at 10 µM (CYP3A4): 47%

The next lines start with results.

IC50 [1] [nM]	SMILES	further results
853	CN1CCC(NC(=O)Nc2cccc3[nH]ncc23)c2cc(C(C)(C)C)ccc21 (stereo unspecified)	–
110	O=C(Nc1cccc2[nH]ncc12)NC1CCOc2c1cccc2N1CCOCC1 (stereo unspecified)	–
933	Cc1ccc2c(c1)C(NC(=O)Nc1cccc3[nH]ncc13)CCO2 (stereo unspecified)	–
718	O=C(Nc1cccc2[nH]ncc12)NC1CCOc2ccc(F)cc21 (stereo unspecified)	–
234	O=C(Nc1cccc2[nH]ncc12)NC1CCOc2ccccc21 (stereo unspecified)	–
215	CN1CCC(NC(=O)Nc2cccc3[nH]ncc23)c2ccccc21 (stereo unspecified)	inhibition at 10 µM (CYP3A4): 65%
6	CN1CCC(NC(=O)Nc2cccc3[nH]ncc23)c2cccc(C(C)(C)C)c21 (stereo unspecified)	–
115	CN1CCC(NC(=O)Nc2cccc3[nH]ncc23)c2ccc(C(C)(C)C)cc21 (stereo unspecified)	–
70	O=C(Nc1cccc2[nH]ncc12)NC1CCN(Cc2ccccc2)c2ccccc21 (stereo unspecified)	inhibition at 10 µM (CYP3A4): 94%
66	O=C(Nc1cccc2[nH]ncc12)NC1CCN(Cc2ccccc2)c2ccc(F)cc21 (stereo unspecified)	–
160	COc1ccc2c(c1)C(NC(=O)Nc1cccc3[nH]ncc13)CCN2Cc1ccccc1 (stereo unspecified)	inhibition at 10 µM (CYP3A4): 97%
196	COc1ccc2c(c1)C(NC(=O)Nc1cccc3[nH]ncc13)CCN2CC1CCCCC1 (stereo unspecified)	inhibition at 10 µM (CYP3A4): 93%
31	CC(C)(C)c1ccc2c(c1)OCC[C@H]2NC(=O)Nc1cccc2[nH]ncc12	–
19	CC(C)(C)c1cccc2c1OCC[C@@H]2NC(=O)Nc1cccc2[nH]ncc12	–
